# Measurements as given in US4921873A, “Antiviral and antitumor cyclohexadienone compositions” (Harbor Branch Oceanographic Institution, Inc., priority 1985, dated 1990).
# Assays:
# cells = experiment: Zone of cytotoxicity in antiviral disk assay; type: cell-based; details: read at Day 5
# Procedure: The following assay method was utilized to illustrate the antiviral effectiveness of the compound of Formula II.
# (11) For assay, add 1×10^6 cells to each well (6 wells per culture dish). Bring each well to 2 ml with fresh medium.
# (4) Add 2 ml MC-4000 to each well.
# (5) Place disks on surface and push through (1 mg/disc, 0.5 mg/disc, 0.25 mg/disc, etc. for crude extracts).
# (1) Add 2 ml neutral red medium.
# [1] = test system: L-1210 murine leukemia cells; experiment: L-1210 mouse leukemia cell cytotoxicity assay; type: cell-based; details: L-1210, at 200 μg/ml, in vitro
# Procedure: The following assay method was utilized to illustrate the antitumor effectiveness of the compounds of formulas II, IV, V, VI and VII.
# L1210 And P388 MOUSE LEUKEMIA CELL CYTOXICITY ASSAY 24-WELL PLATE SCREENING ASSAY AND TUBE ASSAY PROTOCOL
# Media--Dulbeccos with glucose and pyruvate (Biologos, Inc) with 10% horse serum, (Biologos, Inc) and 1.0 μg/ml gentamicin (Gibco). Cells--L1210 and P-388 mouse leukemia cells (American Type Culture Collection) in media at a concentration of 5×10^4 cells/ml. Sterile 24-well culture plates (Nunc) for screening or 12×75 mm glass culture tubes (Becton-Dickinson) for tube assay. Microdispenser with 1 to 5 μl increments (Drummond Scientific Co. Broomall Pa). Finnpipette with […] and Finnpipette with 50 to 200 μl increments.
# 1. A sample of the composition to be assayed is added to each well or tube in an amount of from 200 μg/ml and 100 μg/ml for screening. For DDC of known active compounds use log concentrations from 100 μg/ml to 0.01 μg/ml for range-finding assay; when range has been determined, use five concentrations between highest and lowest active concentrations.
# 2. Add 2.0 ml of 5×10^4 cell suspension in media to each well or tube. Tubes are loosely covered with parafilm.
# 3. Incubate in 5% CO2 incubator 48 hours.
# 4. Visually read plates with inverted microscope, comparing with solvent control. Assign activity as follows: […]
# HSV-I = HSV-I plaque inhibition disk assay (antiviral effectiveness); type: cell-based, herpes simplex-I; parameters: key to inhibition of plaque formation: +++: complete inhibition; ++: a few plaques around the outside of well; +: definite inhibition; +/-: questionable inhibition; -: no inhibition
# Procedure: The following assay method was utilized to illustrate the antiviral effectiveness of the compound of Formula II. (1) Remove 75 cm^2 culture flasks from incubator (these were plated the previous week). (11) For assay, add 1×10^6 cells to each well (6 wells per culture dish). Bring each well to 2 ml with fresh medium. (1) Aspirate medium. (2) Add 0.5 of medium containing 200 pfu HSV-I. (3) Incubate […] with a small amount of shaking. (4) Add 2 ml MC-4000 to each well. (5) Place disks on surface and push through (1 mg/disc, 0.5 mg/disc, 0.25 mg/disc, etc. for crude extracts). (6) Incubate 48 hr. (making sure dishes remain level). Day 4: (1) Add 2 ml neutral red medium. (2) Incubate overnight.
# [2] = Stability of isolated alcohol derivative at room temperature; type: physicochemical
compound,measurement,setting,value
CC(=O)OCC(Cl)C1=CC(C)(C)C=CC1=O (stereo not drawn) [Formula II],zone of cytotoxicity (diameter),cells,16 mm
same,viability at 200 µg/mL,"[1]; Mus musculus, L1210, 48 h, read-out: survival",100%
same,inhibition of plaque formation,"HSV-I; 200 pfu, read at Day 5",++
same,antiviral activity,"HSV-I; results at Day 5, in words",definite antiviral activity
CC1(C)C=CC(=O)C(C(Cl)CO)=C1 (stereo not drawn) [Formula VIII],decomposition time,[2],two
CC1(C)C=CC(=O)C(C2CO2)=C1 (stereo not drawn) [Formula VII],survival,"[1]; 48 hours, 2880 min",28%
